Assay: xn = mol fraction of the nth substance listed
Details: 101 kPa, Liquid; for electrical conductivity: Crison conductimeter (model GLP31); for speed of sound: Pulse-echo method; for mass density: Vibrating tube method

CCC[n+]1ccccc1.F[B-](F)(F)F [1-propylpyridinium tetrafluoroborate] + CO
Details	electrical conductivity [S/m]	mass density [kg/m3]	speed of sound [m/s]	viscosity [mPa·s]
293.15 K, x1 = 0.028	–	846.441	1164.9	–
293.15 K, x1 = 0.0313	2.58	–	–	–
293.15 K, x1 = 0.0365	2.84	–	–	–
293.15 K, x1 = 0.0422	3.07	–	–	–
293.15 K, x1 = 0.0505	–	–	–	1.267
293.15 K, x1 = 0.0577	–	893.625	1208.5	–
293.15 K, x1 = 0.0658	3.66	–	–	–
293.15 K, x1 = 0.0775	3.86	–	–	–
293.15 K, x1 = 0.0894	4.05	–	–	–
293.15 K, x1 = 0.0967	–	944.389	1257.2	–
293.15 K, x1 = 0.0993	–	–	–	2.52
293.15 K, x1 = 0.1294	4.37	–	–	–
293.15 K, x1 = 0.1409	4.4	–	–	–
293.15 K, x1 = 0.1459	–	995.788	1311.1	–
293.15 K, x1 = 0.1703	4.48	–	–	–
293.15 K, x1 = 0.191	–	–	–	5.73
293.15 K, x1 = 0.1952	–	1036.49	1362.9	–
293.15 K, x1 = 0.2002	4.41	–	–	–
293.15 K, x1 = 0.2456	4.22	–	–	–
293.15 K, x1 = 0.2819	3.93	–	–	–
293.15 K, x1 = 0.291	–	–	–	9.737
293.15 K, x1 = 0.3213	–	1110.62	1458	–
293.15 K, x1 = 0.3507	3.46	–	–	–
293.15 K, x1 = 0.3918	–	–	–	14.39
293.15 K, x1 = 0.3937	3.13	–	–	–
293.15 K, x1 = 0.4002	–	1143.05	1496.5	–
293.15 K, x1 = 0.4334	2.77	–	–	–
293.15 K, x1 = 0.464	2.55	–	–	–
293.15 K, x1 = 0.4929	–	–	–	20.26
293.15 K, x1 = 0.4965	–	1173.27	1541.5	–
293.15 K, x1 = 0.5398	1.98	–	–	–
293.15 K, x1 = 0.5988	–	1198.33	1575.7	–
293.15 K, x1 = 0.6117	–	–	–	29.28
293.15 K, x1 = 0.635	1.46	–	–	–
293.15 K, x1 = 0.6904	–	1216.19	1598.4	–
293.15 K, x1 = 0.7331	–	–	–	46.22
293.15 K, x1 = 0.7918	0.639	–	–	–
293.15 K, x1 = 0.7923	–	–	–	61.38
293.15 K, x1 = 0.8011	–	1233.62	1621.5	–
293.15 K, x1 = 0.8425	–	–	–	77.91
293.15 K, x1 = 0.8824	–	1244.23	1637.1	–
293.15 K, x1 = 0.894	0.422	–	–	–
293.15 K, x1 = 0.8956	–	–	–	99.92
293.15 K, x1 = 0.9384	0.355	–	–	–
293.15 K, x1 = 0.94	–	1250.69	1646.4	–
293.15 K, x1 = 0.9447	–	–	–	125.55
293.15 K, x1 = 1	0.302	1256.67	1653.9	160
303.15 K, x1 = 0.028	–	837.96	1134.5	–
303.15 K, x1 = 0.0313	2.99	–	–	–
303.15 K, x1 = 0.0365	3.28	–	–	–
303.15 K, x1 = 0.0422	3.59	–	–	–
303.15 K, x1 = 0.0505	–	–	–	0.9388
303.15 K, x1 = 0.0577	–	885.479	1179.8	–
303.15 K, x1 = 0.0658	4.29	–	–	–
303.15 K, x1 = 0.0775	4.56	–	–	–
303.15 K, x1 = 0.0894	4.84	–	–	–
303.15 K, x1 = 0.0967	–	936.347	1230.9	–
303.15 K, x1 = 0.0993	–	–	–	1.76
303.15 K, x1 = 0.1294	5.15	–	–	–
303.15 K, x1 = 0.1409	5.25	–	–	–
303.15 K, x1 = 0.1459	–	987.6	1286.2	–
303.15 K, x1 = 0.1703	5.38	–	–	–
303.15 K, x1 = 0.191	–	–	–	3.674
303.15 K, x1 = 0.1952	–	1028.35	1339.4	–
303.15 K, x1 = 0.2002	5.35	–	–	–
303.15 K, x1 = 0.2456	5.16	–	–	–
303.15 K, x1 = 0.2819	4.8	–	–	–
303.15 K, x1 = 0.291	–	–	–	6.277
303.15 K, x1 = 0.3213	–	1102.55	1433.2	–
303.15 K, x1 = 0.3507	4.31	–	–	–
303.15 K, x1 = 0.3918	–	–	–	8.954
303.15 K, x1 = 0.3937	3.94	–	–	–
303.15 K, x1 = 0.4002	–	1135.04	1477.2	–
303.15 K, x1 = 0.4334	3.52	–	–	–
303.15 K, x1 = 0.464	3.16	–	–	–
303.15 K, x1 = 0.4929	–	–	–	12.66
303.15 K, x1 = 0.4965	–	1165.53	1516.7	–
303.15 K, x1 = 0.5398	2.59	–	–	–
303.15 K, x1 = 0.5988	–	1190.7	1550.9	–
303.15 K, x1 = 0.6117	–	–	–	18.63
303.15 K, x1 = 0.635	2.01	–	–	–
303.15 K, x1 = 0.6904	–	1208.71	1574	–
303.15 K, x1 = 0.7331	–	–	–	29.44
303.15 K, x1 = 0.7918	1.04	–	–	–
303.15 K, x1 = 0.7923	–	–	–	38
303.15 K, x1 = 0.8011	–	1226.21	1597.3	–
303.15 K, x1 = 0.8425	–	–	–	47.82
303.15 K, x1 = 0.8824	–	1236.99	1612.7	–
303.15 K, x1 = 0.894	0.702	–	–	–
303.15 K, x1 = 0.8956	–	–	–	59.95
303.15 K, x1 = 0.9384	0.625	–	–	–
303.15 K, x1 = 0.94	–	1243.5	1622.4	–
303.15 K, x1 = 0.9447	–	–	–	73.49
303.15 K, x1 = 1	0.516	1249.54	1629.8	90.75

From the NIST ThermoML archive (doi:10.1021/je401120a)
